Results taken from paper PMC7270175, “Micelle-stabilized Olfactory Receptors for a Bioelectronic Nose Detecting Butter Flavors in Real Fermented Alcoholic Beverages” (Scientific Reports, 2020).

Molecular target: T1, ODR-10 (Caenorhabditis elegans, UniProt Q18807)
T1 construct: ODR-10 in pET-DEST42 (V5 and Ni-column purification tag), E. coli BL21(DE3), SDS-solubilized, reconstituted in DDM/Cymal 6 detergent micelles; also pcDNA3 ODR-10 in HEK-293 cells
T1 sequence (Q18807 1-339): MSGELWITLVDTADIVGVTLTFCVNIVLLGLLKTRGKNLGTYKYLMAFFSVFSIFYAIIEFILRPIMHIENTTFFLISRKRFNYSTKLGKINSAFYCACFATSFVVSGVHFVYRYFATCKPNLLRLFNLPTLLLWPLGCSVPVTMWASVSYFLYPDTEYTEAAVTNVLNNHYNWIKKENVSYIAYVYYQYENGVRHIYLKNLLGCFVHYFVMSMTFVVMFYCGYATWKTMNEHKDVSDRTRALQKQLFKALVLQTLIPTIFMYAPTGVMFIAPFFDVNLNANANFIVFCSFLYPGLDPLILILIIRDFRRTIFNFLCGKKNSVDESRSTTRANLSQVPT
Experiment: carbon nanotube FET, Hill fit of conductance response
Type: binding
Details: read-out: K

## CC(=O)C(C)=O [Diacetyl, 2,3-butanedione]
  Kd: ~1.7 pM
